Results from US10975079B2, “4-amino-3-phenylamino-6-phenylpyrazolo[3,4-d]pyrimidine derivatives for use as BCRP inhibitors in therapeutic treatments” (SCANDION ONCOLOGY A/S, priority 2015, dated 2021).

Legend:
BCRP = target: T1, BCRP (Homo sapiens, UniProt Q9UNQ0); experiment: BCRP fluorimetric inhibition assay, Hoechst 33342 substrate, recombinant CHO-K1 cells; assay type: cell-based; conditions: Hoechst 33342 (5 μm) substrate, 20 min at 37° C., fluorimetry
T1 construct: expressed in transfected cells; host or cells: CHO-K1
T1 sequence (Q9UNQ0 1-655): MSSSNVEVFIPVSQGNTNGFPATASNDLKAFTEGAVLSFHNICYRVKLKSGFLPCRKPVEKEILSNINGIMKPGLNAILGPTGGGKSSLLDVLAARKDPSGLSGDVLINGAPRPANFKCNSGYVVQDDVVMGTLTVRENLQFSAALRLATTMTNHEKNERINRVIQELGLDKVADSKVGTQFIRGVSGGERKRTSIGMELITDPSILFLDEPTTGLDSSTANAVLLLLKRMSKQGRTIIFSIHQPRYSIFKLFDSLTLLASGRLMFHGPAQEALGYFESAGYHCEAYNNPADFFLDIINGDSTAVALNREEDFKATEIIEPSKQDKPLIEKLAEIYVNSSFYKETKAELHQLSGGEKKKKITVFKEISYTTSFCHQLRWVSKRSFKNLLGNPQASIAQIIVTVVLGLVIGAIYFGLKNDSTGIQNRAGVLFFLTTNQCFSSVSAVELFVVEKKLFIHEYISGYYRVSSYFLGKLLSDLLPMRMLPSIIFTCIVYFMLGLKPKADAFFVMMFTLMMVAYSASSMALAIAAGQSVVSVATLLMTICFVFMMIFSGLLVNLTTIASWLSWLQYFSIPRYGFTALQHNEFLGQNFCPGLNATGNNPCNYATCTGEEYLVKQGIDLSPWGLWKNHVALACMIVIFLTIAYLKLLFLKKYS
Protocol: The IC-50 value of OBR 5-340 and MS 112 were determined according to the method described by Paturi D. K, et al in Int. J. Pharm. (2010), 384: 32-38. The source used for the determination was human recombinant CHO-K1 cells, while Hoechst 33342 (5 μm) was used as the substrate. The cells were incubated for 20 min at 37° C. and the detection was accomplished by fluorimetry.
Fluorimetric Inhibition Assay:
The percent of control is calculated using the following equation.
In this formula, “Compound” is the individual reading in the presence of the test compound. “T1” is the mean reading in the absence of the test compound. Background is the mean reading in the presence of the highest effective concentration of the reference inhibitor.
The percent of inhibition is calculated by subtracting the percent of control from 100. The IC50 value (concentration causing a half-maximal inhibition of the control value) is determined by non-linear regression analysis of the concentration-response curve using the Hill equation.

CYP1A = experiment: Cytochrome P450 inhibition (DMPK studies); assay type: in vitro ADME
CYP2B6 [1] = target: T2, CYP2B6 (Homo sapiens, UniProt P20813); experiment: Cytochrome P450 inhibition (DMPK studies); assay type: in vitro ADME
T2 sequence (P20813 1-491): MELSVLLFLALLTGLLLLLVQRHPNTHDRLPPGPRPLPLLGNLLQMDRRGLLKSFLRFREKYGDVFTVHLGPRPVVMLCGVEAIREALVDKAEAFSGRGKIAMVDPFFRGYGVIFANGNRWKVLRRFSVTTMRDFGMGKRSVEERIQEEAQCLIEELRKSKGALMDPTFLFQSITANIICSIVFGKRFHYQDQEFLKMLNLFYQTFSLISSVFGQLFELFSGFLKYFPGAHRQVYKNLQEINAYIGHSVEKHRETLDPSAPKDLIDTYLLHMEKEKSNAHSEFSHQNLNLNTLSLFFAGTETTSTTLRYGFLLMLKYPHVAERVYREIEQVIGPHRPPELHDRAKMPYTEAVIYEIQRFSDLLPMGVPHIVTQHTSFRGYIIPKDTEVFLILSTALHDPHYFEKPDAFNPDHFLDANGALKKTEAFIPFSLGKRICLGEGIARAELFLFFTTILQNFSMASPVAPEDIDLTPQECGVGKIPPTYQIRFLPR

CYP2C19 = CYP2C19 (Homo sapiens, UniProt P33261); experiment: Cytochrome P450 inhibition (DMPK studies); assay type: in vitro ADME
Chain of CYP2C19 (P33261 whole entry): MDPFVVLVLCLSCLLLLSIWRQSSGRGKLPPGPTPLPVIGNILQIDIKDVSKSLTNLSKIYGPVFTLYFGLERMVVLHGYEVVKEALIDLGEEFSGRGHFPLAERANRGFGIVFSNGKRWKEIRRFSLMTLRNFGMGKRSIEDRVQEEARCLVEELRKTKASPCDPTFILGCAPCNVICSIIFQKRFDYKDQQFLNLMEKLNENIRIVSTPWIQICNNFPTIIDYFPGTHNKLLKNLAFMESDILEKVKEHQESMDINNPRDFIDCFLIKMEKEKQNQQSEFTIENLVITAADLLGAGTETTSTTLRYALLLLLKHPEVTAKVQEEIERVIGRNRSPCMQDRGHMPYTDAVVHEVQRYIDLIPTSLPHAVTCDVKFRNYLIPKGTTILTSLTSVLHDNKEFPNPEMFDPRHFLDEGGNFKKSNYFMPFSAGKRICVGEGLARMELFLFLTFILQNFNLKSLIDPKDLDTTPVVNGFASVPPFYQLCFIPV
Text: (§1) Also no induction of CYP1A2, CYP2B6, and CYP3A4 could be found.

CYP2C8 = target: T3, CYP2C8 (Homo sapiens, UniProt P10632); experiment: Cytochrome P450 inhibition (DMPK studies); assay type: in vitro ADME
T3 sequence (P10632 1-490): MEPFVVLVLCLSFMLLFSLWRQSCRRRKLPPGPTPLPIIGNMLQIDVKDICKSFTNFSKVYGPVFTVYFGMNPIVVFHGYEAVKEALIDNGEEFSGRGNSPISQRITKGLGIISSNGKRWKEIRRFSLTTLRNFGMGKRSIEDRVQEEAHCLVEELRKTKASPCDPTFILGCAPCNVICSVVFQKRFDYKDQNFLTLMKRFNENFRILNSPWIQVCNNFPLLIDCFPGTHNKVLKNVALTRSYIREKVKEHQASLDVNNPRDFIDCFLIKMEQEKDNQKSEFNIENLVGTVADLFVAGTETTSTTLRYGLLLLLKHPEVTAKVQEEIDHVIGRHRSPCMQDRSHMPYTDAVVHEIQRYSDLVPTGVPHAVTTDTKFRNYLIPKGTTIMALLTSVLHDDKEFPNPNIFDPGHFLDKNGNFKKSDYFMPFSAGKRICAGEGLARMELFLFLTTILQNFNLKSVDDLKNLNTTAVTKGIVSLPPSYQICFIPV
Text: as §1

CYP2C9 = CYP2C9 (Homo sapiens, UniProt P11712); experiment: Cytochrome P450 inhibition (DMPK studies); assay type: in vitro ADME
Chain of CYP2C9 (P11712 whole entry): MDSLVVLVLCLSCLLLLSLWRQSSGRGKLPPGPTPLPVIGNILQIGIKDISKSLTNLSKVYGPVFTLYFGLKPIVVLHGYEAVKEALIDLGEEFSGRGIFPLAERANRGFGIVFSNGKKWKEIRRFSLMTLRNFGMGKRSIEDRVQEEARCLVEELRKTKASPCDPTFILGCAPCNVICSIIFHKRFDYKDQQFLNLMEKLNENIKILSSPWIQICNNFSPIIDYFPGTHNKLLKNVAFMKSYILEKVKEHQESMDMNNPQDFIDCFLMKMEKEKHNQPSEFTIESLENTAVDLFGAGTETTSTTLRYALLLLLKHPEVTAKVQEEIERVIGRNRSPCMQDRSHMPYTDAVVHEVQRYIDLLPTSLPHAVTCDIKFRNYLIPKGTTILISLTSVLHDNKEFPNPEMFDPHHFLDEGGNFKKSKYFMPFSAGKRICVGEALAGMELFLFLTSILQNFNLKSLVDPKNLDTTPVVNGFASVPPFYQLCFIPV
Text: as §1

CYP2D6 = CYP2D6 (Homo sapiens, UniProt P10635); experiment: Cytochrome P450 inhibition (DMPK studies); assay type: in vitro ADME
Chain of CYP2D6 (P10635 whole entry): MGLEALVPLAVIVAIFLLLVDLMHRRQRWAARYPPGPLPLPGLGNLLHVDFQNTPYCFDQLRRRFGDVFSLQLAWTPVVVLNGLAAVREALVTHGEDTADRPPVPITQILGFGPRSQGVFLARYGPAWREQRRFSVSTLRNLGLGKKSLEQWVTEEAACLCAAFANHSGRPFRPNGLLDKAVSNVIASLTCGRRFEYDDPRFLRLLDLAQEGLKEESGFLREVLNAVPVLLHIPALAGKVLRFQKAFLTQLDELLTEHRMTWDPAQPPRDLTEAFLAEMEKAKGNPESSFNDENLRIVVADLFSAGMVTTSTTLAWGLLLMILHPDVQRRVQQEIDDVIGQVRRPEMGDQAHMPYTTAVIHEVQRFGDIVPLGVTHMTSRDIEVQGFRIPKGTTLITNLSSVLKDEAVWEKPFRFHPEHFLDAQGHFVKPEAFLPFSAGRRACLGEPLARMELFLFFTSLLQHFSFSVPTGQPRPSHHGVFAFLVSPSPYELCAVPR
Text: as §1

CYP3A = experiment: Cytochrome P450 inhibition (DMPK studies); assay type: in vitro ADME
Text: as §1

CYP1A2 = experiment: Cytochrome P450 induction (DMPK studies); assay type: in vitro ADME
Text: as §1

CYP2B6 [2] = experiment: Cytochrome P450 induction (DMPK studies); assay type: in vitro ADME
Text: as §1

CYP3A4 = experiment: Cytochrome P450 induction (DMPK studies); assay type: in vitro ADME
Text: as §1

Row | SMILES | IC50 (BCRP) [µM] | inhibition of CYP1A (CYP1A) | inhibition of CYP2B6 (CYP2B6 [1]) | inhibition of CYP2C19 (CYP2C19) | inhibition of CYP2C8 (CYP2C8) | inhibition of CYP2C9 (CYP2C9) | inhibition of CYP2D6 (CYP2D6) | inhibition of CYP3A (CYP3A) | induction of CYP1A2 (CYP1A2) | induction of CYP2B6 (CYP2B6 [2]) | induction of CYP3A4 (CYP3A4)
1 | Nc1nc(-c2ccccc2)nc2[nH]nc(Nc3ccc(C(F)(F)F)cc3)c12 [OBR-5-340, 4-amino-3-(4-trifluormethyl-phenyl)amino-6-phenylpyrazolo[3,4-d]pyrimidine] | 1.7 | does not inhibit | does not inhibit | does not inhibit | does not inhibit | does not inhibit | does not inhibit | does not inhibit | no induction | no induction | no induction
2 | Nc1nc(-c2ccc(OC(F)(F)F)cc2)nc2[nH]nc(Nc3ccccc3)c12 [MS-112, 4-amino-3-phenylamino-6-[4-(trifluormethoxy)-phenyl]pyrazolo[3,4-d]pyrimidine] | ~100 | – | – | – | – | – | – | – | – | – | –
